Where a name gives a salt, the structure may show the parent alone.
Molecular target: T1, HDAC6 (Homo sapiens, UniProt Q9UBN7)
T1 sequence (Q9UBN7 1-1215): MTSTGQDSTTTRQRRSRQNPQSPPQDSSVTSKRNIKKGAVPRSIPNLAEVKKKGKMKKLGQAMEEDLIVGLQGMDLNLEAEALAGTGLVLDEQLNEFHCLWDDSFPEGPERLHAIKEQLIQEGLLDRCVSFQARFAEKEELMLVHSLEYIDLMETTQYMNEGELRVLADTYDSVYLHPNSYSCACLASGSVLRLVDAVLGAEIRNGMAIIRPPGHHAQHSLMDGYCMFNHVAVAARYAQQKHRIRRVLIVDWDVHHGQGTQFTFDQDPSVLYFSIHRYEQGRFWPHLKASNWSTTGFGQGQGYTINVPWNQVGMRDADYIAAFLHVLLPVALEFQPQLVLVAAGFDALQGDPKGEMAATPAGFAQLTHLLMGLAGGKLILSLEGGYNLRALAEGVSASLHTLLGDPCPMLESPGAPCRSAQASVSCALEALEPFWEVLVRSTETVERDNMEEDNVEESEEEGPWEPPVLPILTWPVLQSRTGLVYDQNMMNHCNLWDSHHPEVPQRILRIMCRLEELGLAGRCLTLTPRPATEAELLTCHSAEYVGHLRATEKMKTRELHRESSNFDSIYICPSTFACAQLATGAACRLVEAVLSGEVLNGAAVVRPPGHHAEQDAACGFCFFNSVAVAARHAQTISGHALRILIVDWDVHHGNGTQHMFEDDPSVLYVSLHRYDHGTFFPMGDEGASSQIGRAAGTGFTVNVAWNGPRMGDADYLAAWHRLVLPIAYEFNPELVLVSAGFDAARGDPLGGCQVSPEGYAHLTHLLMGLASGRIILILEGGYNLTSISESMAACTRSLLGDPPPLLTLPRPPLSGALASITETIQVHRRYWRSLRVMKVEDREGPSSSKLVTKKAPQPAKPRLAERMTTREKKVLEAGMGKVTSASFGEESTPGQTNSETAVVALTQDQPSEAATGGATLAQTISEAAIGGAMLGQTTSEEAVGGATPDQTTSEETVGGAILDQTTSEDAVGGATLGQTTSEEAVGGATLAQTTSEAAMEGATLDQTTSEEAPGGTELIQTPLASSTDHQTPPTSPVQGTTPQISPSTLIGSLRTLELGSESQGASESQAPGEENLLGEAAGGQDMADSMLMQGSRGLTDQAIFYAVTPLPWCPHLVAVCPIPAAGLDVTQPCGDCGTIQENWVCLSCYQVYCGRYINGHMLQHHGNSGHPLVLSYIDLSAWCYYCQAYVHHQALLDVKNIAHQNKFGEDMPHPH
Assay: HDAC assay (fluorogenic substrate), HDAC6
Format: biochemical
Description: Base Reaction buffer: 50 mM Tris-HCl, pH8.0, 137 mM NaCl, 2.7 mM KCl, and 1 mM MgCl2. Add fresh: 1 mg/ml BSA, 1% DMSO
Fluorogenic HDAC General Substrate: 50 μM, Arg-His-Lys-Lys(Ac)
• 1. Deliver 2× enzyme in wells of reaction plate except No Enzyme control wells. Add buffer in No En wells. • 2. Deliver compounds in 100% DMSO into the enzyme mixture by Acoustic technology (Echo550; nanoliter range). Spin down and pre-incubation. • 3. Deliver 2× Substrate Mixture (Fluorogenic HDAC Substrate and co-factor if applicable) in all reaction wells to initiate the reaction. Spin and shake. • 4. Incubate for 30 min for Class 2A, 1 hr for HDAC1, 2, 3, and 6, and 2 hr for the rest of HDACs and SIRTs at 30° C. with seal. Development Step: • 5. Add Developer with Trichostatin A (or Nicotinamide for SIRTs) to stop the reaction and to generate fluorescent color. • 6. Kinetic measurement for 1.5 hr with Envision with 15 min interval. (Ex/Em=360/460 nm) • 7. Take endpoint reading for analysis after the development reaches plateau.

Compound	inhibition at 10 µM [%]
FC(F)c1nnc(-c2cnc(Nc3cc(Br)c4nc[nH]c4c3)nc2)o1 [Example 2, 4-bromo-N-(5-(5-(difluoromethyl)-1,3,4-oxadiazol-2-yl)pyrimidin-2-yl)-1H-benzo[d]imidazol-6-amine]	> 90
FC(F)c1nnc(-c2cnc(Nc3cc(-c4cccnc4)c4nc[nH]c4c3)nc2)o1 [Example 3, N-(5-(5-(difluoromethyl)-1,3,4-oxadiazol-2-yl)pyrimidin-2-yl)-4-(pyridin-3-yl)-1H-benzo[d]imidazol-6-amine hydrochloride]	> 80
Cn1cnc2c(-c3ccccc3)cc(Nc3ncc(-c4nnc(C(F)F)o4)cn3)cc21 [Example 4, N-(5-(5-(difluoromethyl)-1,3,4-oxadiazol-2-yl)pyrimidin-2-yl)-1-methyl-4-phenyl-1H-benzo[d]imidazol-6-amine]	> 70
Cc1nc2c(-c3ccccc3)cc(Nc3ncc(-c4nnc(C(F)F)o4)cn3)cc2[nH]1 [Example 5, N-(5-(5-(difluoromethyl)-1,3,4-oxadiazol-2-yl)pyrimidin-2-yl)-2-methyl-4-phenyl-1H-benzo[d]imidazol-6-amine]	> 90
CN(C)c1nc2c(-c3ccccc3)cc(Nc3ncc(-c4nnc(C(F)F)o4)cn3)cc2[nH]1 [Example 6, N6-(5-(5-(difluoromethyl)-1,3,4-oxadiazol-2-yl)pyrimidin-2-yl)-N2,N2-dimethyl-4-phenyl-1H-benzo[d]imidazole-2,6-diamine]	> 80
CN(c1cc(-c2ccccc2)c2nc[nH]c2c1)c1ncc(-c2nnc(C(F)F)o2)cn1 [Example 7, N-(5-(5-(difluoromethyl)-1,3,4-oxadiazol-2-yl)pyrimidin-2-yl)-N-methyl-4-phenyl-1H-benzo[d]imidazol-6-amine]	> 40
CN(C)C(=O)c1cc(Nc2ncc(-c3nnc(C(F)F)o3)cn2)cc2[nH]cnc12 [Example 8, 6-((5-(5-(difluoromethyl)-1,3,4-oxadiazol-2-yl)pyrimidin-2-yl)amino)-N,N-dimethyl-1H-benzo[d]imidazole-4-carboxamide]	> 80
Fc1ccc(-c2cc(Nc3ncc(-c4nnc(C(F)F)o4)cn3)cc3[nH]cnc23)c(F)c1 [Example 9, N-(5-(5-(difluoromethyl)-1,3,4-oxadiazol-2-yl)pyrimidin-2-yl)-4-(2,4-difluorophenyl)-1H-benzo[d]imidazol-6-amine]	> 90
FC(F)c1nnc(-c2cnc(Nc3cc(-c4ccccn4)c4nc[nH]c4c3)nc2)o1 [Example 10, N-(5-(5-(difluoromethyl)-1,3,4-oxadiazol-2-yl)pyrimidin-2-yl)-4-(pyridin-2-yl)-1H-benzo[d]imidazol-6-amine]	> 90
O=S(=O)(NCCO)c1cc(Nc2ncc(-c3nnc(C(F)F)o3)cn2)cc2[nH]cnc12 [Example 11, 6-((5-(5-(difluoromethyl)-1,3,4-oxadiazol-2-yl)pyrimidin-2-yl)amino)-N-(2-hydroxyethyl)-1H-benzo[d]imidazole-4-sulfonamide]	> 90
C=CCn1cnc2c(-c3ccccc3)cc(Nc3ncc(-c4nnc(C(F)F)o4)cn3)cc21 [Example 12, 1-allyl-N-(5-(5-(difluoromethyl)-1,3,4-oxadiazol-2-yl)pyrimidin-2-yl)-4-phenyl-1H-benzo[d]imidazol-6-amine]	> 90
OCC(O)Cn1cnc2c(-c3ccccc3)cc(Nc3ncc(-c4nnc(C(F)F)o4)cn3)cc21 (stereo not drawn) [Example 13, 3-(6-((5-(5-(difluoromethyl)-1,3,4-oxadiazol-2-yl)pyrimidin-2-yl)amino)-4-phenyl-1H-benzo[d]imidazol-1-yl)propane-1,2-diol]	> 90
OCCn1cnc2c(-c3ccccc3)cc(Nc3ncc(-c4nnc(C(F)F)o4)cn3)cc21 [Example 14, 2-(6-((5-(5-(difluoromethyl)-1,3,4-oxadiazol-2-yl)pyrimidin-2-yl)amino)-4-phenyl-1H-benzo[d]imidazol-1-yl)ethan-1-ol]	> 90
CN(C)CCn1cnc2c(-c3ccccc3)cc(Nc3ncc(-c4nnc(C(F)F)o4)cn3)cc21 [Example 15, N-(5-(5-(difluoromethyl)-1,3,4-oxadiazol-2-yl)pyrimidin-2-yl)-1-(2-(dimethylamino)ethyl)-4-phenyl-1H-benzo[d]imidazol-6-amine]	> 90
OC1CCN(CCn2cnc3c(-c4ccccc4)cc(Nc4ncc(-c5nnc(C(F)F)o5)cn4)cc32)C1 (stereo not drawn) [Example 16, 1-(2-(6-((5-(5-(difluoromethyl)-1,3,4-oxadiazol-2-yl)pyrimidin-2-yl)amino)-4-phenyl-1H-benzo[d]imidazol-1-yl)ethyl)pyrrolidin-3-ol]	> 90
FC(F)c1nnc(-c2cnc(Nc3cc(-c4ccc(N5CCOCC5)cc4)c4nc[nH]c4c3)nc2)o1 [Example 17, N-(5-(5-(difluoromethyl)-1,3,4-oxadiazol-2-yl)pyrimidin-2-yl)-4-(4-morpholinophenyl)-1H-benzo[d]imidazol-6-amine]	> 90
FC(F)c1nnc(-c2cnc(Nc3cc(-c4ccc(CN5CCOCC5)cc4)c4nc[nH]c4c3)nc2)o1 [Example 18, N-(5-(5-(difluoromethyl)-1,3,4-oxadiazol-2-yl)pyrimidin-2-yl)-4-(4-(morpholinomethyl)phenyl)-1H-benzo[d]imidazol-6-amine]	> 90
FC(F)c1nnc(-c2cnc(Nc3ccc4nc[nH]c4c3)nc2)o1 [Example 19, N-(5-(5-(difluoromethyl)-1,3,4-oxadiazol-2-yl)pyrimidin-2-yl)-1H-benzo[d]imidazol-6-amine]	> 90
FC(F)c1nnc(-c2cnc(NCc3cc(-c4ccccc4)c4nc[nH]c4c3)nc2)o1 [Example 20, 5-(5-(difluoromethyl)-1,3,4-oxadiazol-2-yl)-N-((4-phenyl-1H-benzo[d]imidazol-6-yl)methyl)pyrimidin-2-amine]	> 90
OCCn1cnc2c(-c3ccccn3)cc(Nc3ncc(-c4nnc(C(F)F)o4)cn3)cc21 [Example 21, 2-(6-((5-(5-(difluoromethyl)-1,3,4-oxadiazol-2-yl)pyrimidin-2-yl)amino)-4-(pyridin-2-yl)-1H-benzo[d]imidazol-1-yl)ethan-1-ol]	> 90
Fc1cnc(-c2cc(Nc3ncc(-c4nnc(C(F)F)o4)cn3)cc3[nH]cnc23)c(F)c1 [Example 22, N-(5-(5-(difluoromethyl)-1,3,4-oxadiazol-2-yl)pyrimidin-2-yl)-4-(3,5-difluoropyridin-2-yl)-1H-benzo[d]imidazol-6-amine]	> 90
FC(F)c1nnc(-c2cnc(Nc3cc(C(F)(F)F)c4nc[nH]c4c3)nc2)o1 [Example 23, N-(5-(5-(difluoromethyl)-1,3,4-oxadiazol-2-yl)pyrimidin-2-yl)-4-(trifluoromethyl)-1H-benzo[d]imidazol-6-amine]	> 90
OCCn1cnc2cc(Nc3ncc(-c4nnc(C(F)F)o4)cn3)cc(-c3ccccc3)c21 [Example 24, 2-(5-((5-(5-(difluoromethyl)-1,3,4-oxadiazol-2-yl)pyrimidin-2-yl)amino)-7-phenyl-1H-benzo[d]imidazol-1-yl)ethan-1-ol]	> 90
CN(C)C(=O)Cn1cnc2c(-c3ccccc3)cc(Nc3ncc(-c4nnc(C(F)F)o4)cn3)cc21 [Example 25, 2-(6-((5-(5-(difluoromethyl)-1,3,4-oxadiazol-2-yl)pyrimidin-2-yl)amino)-4-phenyl-1H-benzo[d]imidazol-1-yl)-N,N-dimethylacetamide]	> 90

Source: US11339150B2, “Benzimidazole compounds as HDAC6 inhibitors” (OnKure, Inc., priority 2019, dated 2022)
